Counter-ions that a name gives are not always drawn.

Here are results for six compounds from patent publication US9932331B2, “Phenyl tetrahydroisoquinoline compound substituted with heteroaryl” (TAISHO PHARMACEUTICAL CO., LTD, priority 2014, dated 2018).

The target of one assay is T1, human NHE3 (Homo sapiens, UniProt P48764).
T1 sequence (P48764 26-834): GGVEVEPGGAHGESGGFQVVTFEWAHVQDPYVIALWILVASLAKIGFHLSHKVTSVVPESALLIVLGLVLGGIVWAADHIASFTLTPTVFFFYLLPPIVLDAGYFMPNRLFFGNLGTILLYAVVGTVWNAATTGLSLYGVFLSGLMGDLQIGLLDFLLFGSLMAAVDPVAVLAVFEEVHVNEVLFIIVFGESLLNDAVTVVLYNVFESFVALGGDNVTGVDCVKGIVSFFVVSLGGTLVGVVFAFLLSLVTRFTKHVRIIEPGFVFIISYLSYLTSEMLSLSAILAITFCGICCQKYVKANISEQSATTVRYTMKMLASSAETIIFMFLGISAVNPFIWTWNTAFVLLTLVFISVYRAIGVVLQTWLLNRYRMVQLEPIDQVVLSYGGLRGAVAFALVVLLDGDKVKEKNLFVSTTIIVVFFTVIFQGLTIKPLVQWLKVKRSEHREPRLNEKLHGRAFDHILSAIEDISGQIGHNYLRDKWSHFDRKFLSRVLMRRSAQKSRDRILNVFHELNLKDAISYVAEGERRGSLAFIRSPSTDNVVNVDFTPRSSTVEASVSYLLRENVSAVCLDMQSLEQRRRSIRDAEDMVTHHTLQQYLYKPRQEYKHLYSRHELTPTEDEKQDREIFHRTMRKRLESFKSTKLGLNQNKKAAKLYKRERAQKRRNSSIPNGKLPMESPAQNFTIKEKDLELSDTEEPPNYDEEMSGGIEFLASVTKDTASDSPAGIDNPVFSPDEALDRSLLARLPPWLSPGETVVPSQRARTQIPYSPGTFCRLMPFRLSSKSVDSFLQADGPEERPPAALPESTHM
Put plainly: NHE3 inhibition test (recovery of intracellular pH in cell line stably expressing human NHE3). It is filed as cell-based. The settings on record: OK cells deficient in endogenous NHE stably expressing human NHE3; BCECF fluorescence, initial rate of pH recovery; read-out: human NHE3 inhibitory activity IC50. The method in brief:
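Opossum kidney cells lacking endogenous NHE, stably expressing human NHE3, loaded with BCECF-AM and acid-loaded by NH4Cl washout. Compound in Na-free buffer, then Na-containing buffer (pH 7.4) added; initial pH-recovery rate by BCECF fluorescence, IC50 versus no-compound recovery.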

Another assay relates to SD rat. The assay can be described thus: 32P-phosphate oral loading test using SD rat (phosphorus absorption inhibitory effect). It is filed as in vivo. To be noted: Rattus norvegicus, 0.5 h; SD male rats, oral dose 3 mg/kg; plasma radioactivity 30 minutes after 32P-phosphate solution, vs control group; read-out: Rate of inhibition of phosphate absorption. As to the method:
Phosphorus Absorption Inhibitory Effect of the Compound of the Present Invention in ^32P-Phosphate Oral Loading Test Using SD Rat
8-week-old SD male rats (Japan SLC, Inc.) were used as laboratory animals. Each test compound was suspended or dissolved at a concentration of 0.2 mg/mL or 0.6 mg/mL in Japanese Pharmacopoeia water for injection (manufactured by Hikari Pharmaceutical Co., Ltd.) and orally administered to each rat at a dose of 5 ml/kg body weight. Japanese Pharmacopoeia water for injection was administered at the same dose as above to a control group. 5 minutes after the administration of the test compound or water for injection, a phosphate solution (1.3 mM NaH2PO4) containing 32P-phosphate (PerkinElmer Inc.) was administered thereto at a dose of 5 ml/kg. 30 minutes after the administration of the phosphate solution, blood was collected from the tail vein, and the blood sample was immediately mixed with EDTA-2K (manufactured by Dojindo Laboratories). Then, the mixture was centrifuged at 3000 rpm at 4° C. for 10 minutes to recover plasma.
The radioactivity in 100 μL of the plasma was measured using a liquid scintillation counter and used as a phosphate absorption count. The radioactivity in the plasma of the control group was used as a control, and the rate of inhibition of phosphate absorption was determined according to the following expression: Rate of inhibition of phosphate absorption (%)=(1−Phosphate absorption count of the test compound administration group/Phosphate absorption count of the control group)×100 (2) Results

`CN1Cc2c(Cl)cc(Cl)cc2[C@H](c2cccc(-c3cn(CCOCCOCCNC(=O)COCC(=O)NCCOCCOCCn4cc(-c5cccc([C@@H]6CN(C)Cc7c(Cl)cc(Cl)cc76)c5)nn4)nn3)c2)C1` [Example 6-4, 1-(4-{3-[(4S)-6,8-Dichloro-2-methyl-1,2,3,4-tetrahydroisoquinolin-4-yl]phenyl}-1H-1,2,3-triazol-1-yl)-N-(2-{2-[2-(4-{3-[(4S)-6,8-dichloro-2-methyl-1,2,3,4-tetrahydroisoquinolin-4-yl]phenyl}-1H-1,2,3-triazol-1-yl)ethoxy]ethoxy}ethyl)-10-oxo-3,6,12-trioxa-9-azatetradecan-14-amide hydrochloride]: the concentration for half-maximal inhibition (IC50) on human NHE3 is 97.6 nM. In addition, the inhibition in vivo at 3 mg/kg in the assay on SD rat was -5%.
Regarding `CN1Cc2c(Cl)cc(Cl)cc2[C@H](c2cccc(-c3cn(CCOCCOCCNC(=O)Nc4ccc(NC(=O)NCCOCCOCCn5cc(-c6cccc([C@@H]7CN(C)Cc8c(Cl)cc(Cl)cc87)c6)nn5)cc4)nn3)c2)C1` [Example 6-5, 1,1′-Benzene-1,4-diylbis[3-(2-{2-[2-(4-{3-[(4S)-6,8-dichloro-2-methyl-1,2,3,4-tetrahydroisoquinolin-4-yl]phenyl}-1H-1,2,3-triazol-1-yl)ethoxy]ethoxy}ethyl)urea]hydrochloride], the IC50 at human NHE3 is 9.5 nM. In the assay on SD rat, the inhibition in vivo at 3 mg/kg is 46%.
The like results for `CN1Cc2c(Cl)cc(Cl)cc2[C@H](c2cccc(-c3cn(CCOCCOCCOCCNC(=O)[C@@H](O)[C@H](O)[C@H](O)[C@@H](O)C(=O)NCCOCCOCCOCCn4cc(-c5cccc([C@@H]6CN(C)Cc7c(Cl)cc(Cl)cc76)c5)nn4)nn3)c2)C1` [Example 6-8, (2R,3S,4R,5S)—N,N′-Bis[2-(2-{2-[2-(4-{3-[(4S)-6,8-dichloro-2-methyl-1,2,3,4-tetrahydroisoquinolin-4-yl]phenyl}-1H-1,2,3-triazol-1-yl)ethoxy]ethoxy}ethoxy)ethyl]-2,3,4,5-tetrahydroxyhexanediamide hydrochloride] were, in that order, 0.8 nM and 34%.
The like results for `CN1Cc2c(Cl)cc(Cl)cc2[C@H](c2cccc(-c3cn(CCOCCOCCOCCOCCNC(=O)[C@H](O)[C@@H](O)C(=O)NCCOCCOCCOCCOCCn4cc(-c5cccc([C@@H]6CN(C)Cc7c(Cl)cc(Cl)cc76)c5)nn4)nn3)c2)C1` [Example 6-9, (2R,3R)—N,N′-Bis[14-(4-{3-[(4S)-6,8-dichloro-2-methyl-1,2,3,4-tetrahydroisoquinolin-4-yl]phenyl}-1H-1,2,3-triazol-1-yl)-3,6,9,12-tetraoxatetradec-1-yl]-2,3-dihydroxybutanediamide hydrochloride] were, in that order, 4.1 nM and 53%.
As for `CN1Cc2c(Cl)cc(Cl)cc2[C@H](c2cccc(-c3cn(CCOCCOCCOCCOCCOCCNC(=O)[C@H](O)[C@@H](O)C(=O)NCCOCCOCCOCCOCCOCCn4cc(-c5cccc([C@@H]6CN(C)Cc7c(Cl)cc(Cl)cc76)c5)nn4)nn3)c2)C1` [Example 6-10, (2R,3R)—N,N′-Bis[17-(4-{3-[(4S)-6,8-dichloro-2-methyl-1,2,3,4-tetrahydroisoquinolin-4-yl]phenyl}-1H-1,2,3-triazol-1-yl)-3,6,9,12,15-pentaoxaheptadec-1-yl]-2,3-dihydroxybutanediamide hydrochloride], on human NHE3, the IC50 is 6.2 nM. Besides, the inhibition in vivo at 3 mg/kg in the assay on SD rat turned out to be 38%.
The matching figures for `CN1Cc2c(Cl)cc(Cl)cc2[C@H](c2cccc(-c3cn(CCOCCOCCOCCOCCNC(=O)[C@@H](O)[C@H](O)[C@H](O)[C@@H](O)C(=O)NCCOCCOCCOCCOCCn4cc(-c5cccc([C@@H]6CN(C)Cc7c(Cl)cc(Cl)cc76)c5)nn4)nn3)c2)C1` [Example 6-11, (2R,3S,4R,5S)—N,N′-Bis[14-(4-{3-[(4S)-6,8-dichloro-2-methyl-1,2,3,4-tetrahydroisoquinolin-4-yl]phenyl}-1H-1,2,3-triazol-1-yl)-3,6,9,12-tetraoxatetradec-1-yl]-2,3,4,5-tetrahydroxyhexanediamide hydrochloride]: 1.4 nM and 33%.

As a reminder, the IC50 is the point on the concentration scale where inhibition reaches its midpoint.
